Laboratory results taken from patent US5760240A, “Taxoid synthesis” (The Scripps Research Institute, priority 1995, dated 1998).

What was measured:
SIH-A = test: Cytotoxicity against tumor cell lines: SIH-A; type: cell-based; conditions: Homo sapiens, SiHa; cell line SIH-A
UCLA-P3 = test: Cytotoxicity against tumor cell lines: UCLA-P3; type: cell-based; conditions: Homo sapiens, UCLA P-3; cell line UCLA-P3
SK-NH-SH = test: Cytotoxicity against tumor cell lines: SK-NH-SH; type: cell-based; conditions: cell line SK-NH-SH
BT-549 = test: Cytotoxicity against tumor cell lines: BT-549; type: cell-based; conditions: Homo sapiens; cell line BT-549
L-1210 = test: Cytotoxicity against tumor cell lines: L-1210; type: cell-based; conditions: Mus musculus, L1210; cell line L-1210
[1] = system: a variety of tumor cell lines; test: Cytotoxicity against a variety of tumor cell lines (in words); conditions: 15 and 15' under the same conditions
Ovcar 3 = test: Cytotoxicity against tumor cell lines: Ovcar 3; type: cell-based; conditions: Homo sapiens; cell line Ovcar 3
786-0 = test: Cytotoxicity against tumor cell lines: 786-0; type: cell-based; conditions: Homo sapiens; cell line 786-0
HT-29 = test: Cytotoxicity against tumor cell lines: HT-29; type: cell-based; conditions: Homo sapiens; cell line HT-29
SK-Mel-28 = test: Cytotoxicity against tumor cell lines: SK-Mel-28; type: cell-based; conditions: Homo sapiens; cell line SK-Mel-28
A-549 = test: Cytotoxicity against tumor cell lines: A-549; type: cell-based; conditions: Homo sapiens, A549; cell line A-549

SMILES: CC(=O)O[C@@H]1C2=C(C)[C@@H](OC(=O)[C@H](O)[C@@H](NC(=O)c3ccccc3)c3ccccc3)C[C@@](O)([C@@H](OC(=O)c3ccccc3)c3ccccc3[C@H]1OC(C)=O)C2(C)C [Compound 15]
- IC50 (SIH-A): 1290 nM
- IC50 (UCLA-P3): 296 nM
- IC50 (SK-NH-SH): 4910 nM
- IC50 (BT-549): 5300 nM
- IC50 (L-1210): 1110 nM
- cytotoxicity against a variety of tumor cell lines [1]: significant cytotoxicity
- cytotoxicity against a variety of tumor cell lines ([1]; listed as 15'): essentially no cytotoxicity
- IC50 (Ovcar 3): 280 nM
- IC50 (786-0): 1930 nM
- IC50 (HT-29): 129 nM
- IC50 (SK-Mel-28): 2710 nM
- IC50 (A-549): 645 nM

SMILES: CC(=O)O[C@H]1C(=O)[C@@]2(C)[C@H]([C@H](OC(=O)c3ccccc3)[C@]3(O)C[C@H](OC(=O)[C@H](O)[C@@H](NC(=O)c4ccccc4)c4ccccc4)C(C)=C1C3(C)C)[C@]1(OC(C)=O)CO[C@@H]1C[C@@H]2O [Taxol, reference compound]
- IC50 (UCLA-P3): 6.4 nM
- IC50 (SK-NH-SH): 0.62 nM
- IC50 (BT-549): 0.5 nM
- IC50 (L-1210): 7 nM
- IC50 (Ovcar 3): 0.62 nM
- IC50 (786-0): 2200 nM
- IC50 (HT-29): 51 nM
- IC50 (SK-Mel-28): 120 nM
